Laboratory results from patent US6376497B1, “Antifungal azole derivatives having a fluorinated vinyl group and process for preparing same” (Korea Research Institute of Chemical Technology, priority 1999, dated 2002).

Key:
Experiment in all cases: In vitro antifungal activity, microbroth dilution MIC
Type in all cases: cell-based
[1] = test system: Candida tropicalis A. 13803; details: 4 to 48 hours; for Minimal inhibitory concentration (MIC): C. tropicalis A. 13803, RPMI-1640, 35° C.; for Minimal inhibitory concentration(MIC), C. tropicalis A. 13803: RPMI-1640, 35° C., no growth observed
Protocol: (§1) In vitro antifungal activities of the inventive antifungal compounds were evaluated using the test strains shown in Table VIII by the following microbroth dilution method which is a modified version of the procedure recommended by National Committee for Clinical Laboratory Standards(see National Committee for Clinical Laboratory Standards, 1992, Reference methods for broth dilution antifungal susceptibility testing of yeasts, Proposed standard M27-P, National Committee for clinical laboratory standards, Villanova, Pa; and National Committee for Clinical Laboratory Standards, 1995, Reference methods for broth dilution antifungal susceptibility testing of yeasts. Tentative standard M27-T, National Committee for clinical laboratory standards, Villanova, Pa).
(§2) Sabourad Dextrose Agar(Difco) was used as a culture medium, and RPMI-1640 broth(Sigma. Co. w/L-glutamine, wo/NaHCO3)(0.165 M MOPS, pH 7.0), as a dilution medium.
(§3) Each of the test strains were subcultured in Sabourad Dextrose Agar medium twice and a stain sample was taken from prominent colonies and suspended in sterile physiological saline solution in a cap tube. The turbidity of the suspension was adjusted to that of the Mcfarland 0.5 standard sample(approximately 10^6 CFU/ml). Then the suspension was diluted 500-fold with sterile RPMI-1640 liquid medium to 2×10^3 CFU/ml.
(§4) Each of the test compounds(the compounds obtained in Examples 1 to 150 and comparative compounds, i.e., fluconazole(FCZ) and itraconazole (ICZ)), was dissolved in DMSO to give a stock solution having a concentration of 4000 μg/ml and the stock solution was successively diluted to obtain test solutions having test compound concentrations of 200, 100, 50, 25, 12.5, 6.25, 3.13, 1.56, 0.78, 0.39, 0.20 and 0.10 μg/ml, respectively.
(§5) 0.1 ml portion of the test solutions were added to the wells of a sterile 96 well plate. Then, 0.1 ml portion of each of the test strain solutions were added successively to the wells and the plate was incubated at 35° C. for 4 to 48 hours.
(§6) Minimal inhibitory concentration(MIC) of each compound was defined as the concentration of the test compound where no growth of the strain could be observed.

[2] = test system: Trichophyton mentagrophytes A. 9129; details: 4 to 48 hours; for Minimal inhibitory concentration (MIC): T. mentagrophytes A. 9129, RPMI-1640, 35° C.; for Minimal inhibitory concentration(MIC), T. mentagrophytes A. 9129: RPMI-1640, 35° C., no growth observed
Protocol: as §1, §2, §3, §4, §5, §6

Candida krusei K. 11655 = details: 4 to 48 hours; for Minimal inhibitory concentration (MIC): C. krusei K. 11655, RPMI-1640, 35° C.; for Minimal inhibitory concentration(MIC), C. krusei K. 11655: RPMI-1640, 35° C., no growth observed
Protocol: as §1, §2, §3, §4, §5, §6

[3] = test system: Cryptococcus neoformans IFM. 40092; details: 4 to 48 hours; for Minimal inhibitory concentration (MIC): Cry. neoformans IFM. 40092, RPMI-1640, 35° C.; for Minimal inhibitory concentration(MIC), Cry. neoformans IFM. 40092: RPMI-1640, 35° C., no growth observed
Protocol: as §1, §2, §3, §4, §5, §6

[4] = test system: Cryptococcus neoformans A. 34144; details: 4 to 48 hours; for Minimal inhibitory concentration (MIC): Cry. neoformans A. 34144, RPMI-1640, 35° C.; for Minimal inhibitory concentration(MIC), Cry. neoformans A. 34144: RPMI-1640, 35° C., no growth observed
Protocol: as §1, §2, §3, §4, §5, §6

[5] = test system: Aspergillus niger A. 16404; details: 4 to 48 hours; for Minimal inhibitory concentration (MIC): A. niger A. 16404, RPMI-1640, 35° C.; for Minimal inhibitory concentration(MIC), A. niger A. 16404: RPMI-1640, 35° C., no growth observed
Protocol: as §1, §2, §3, §4, §5, §6

[6] = test system: Trichophyton mentagrophytes B. 32663; details: 4 to 48 hours; for Minimal inhibitory concentration (MIC): T. mentagrophytes B. 32663, RPMI-1640, 35° C.; for Minimal inhibitory concentration(MIC), T. mentagrophytes B. 32663: RPMI-1640, 35° C., no growth observed
Protocol: as §1, §2, §3, §4, §5, §6

[7] = test system: Candida albicans IFO. 1385; details: 4 to 48 hours; for Minimal inhibitory concentration (MIC): C. albicans IFO. 1385, RPMI-1640, 35° C.; for Minimal inhibitory concentration(MIC), C. albicans IFO. 1385: RPMI-1640, 35° C., no growth observed
Protocol: as §1, §2, §3, §4, §5, §6

[8] = test system: Cryptococcus neoformans B. 42419; details: 4 to 48 hours; for Minimal inhibitory concentration (MIC): Cry. neoformans B. 42419, RPMI-1640, 35° C.; for Minimal inhibitory concentration(MIC), Cry. neoformans B. 42419: RPMI-1640, 35° C., no growth observed
Protocol: as §1, §2, §3, §4, §5, §6

[9] = test system: Candida pseudotropicalis K. 11658; details: 4 to 48 hours; for Minimal inhibitory concentration (MIC): C. pseudotropicalis K. 11658, RPMI-1640, 35° C.; for Minimal inhibitory concentration(MIC), C. pseudotropicalis K. 11658: RPMI-1640, 35° C., no growth observed
Protocol: as §1, §2, §3, §4, §5, §6

[10] = test system: Aspergillus furnigatus B. 19119; details: 4 to 48 hours; for Minimal inhibitory concentration (MIC): A furnigatus B. 19119, RPMI-1640, 35° C.; for Minimal inhibitory concentration(MIC), A furnigatus B. 19119: RPMI-1640, 35° C., no growth observed
Protocol: as §1, §2, §3, §4, §5, §6

[11] = test system: Candida albicans A. 10231; details: 4 to 48 hours; for Minimal inhibitory concentration (MIC): C. albicans A. 10231, RPMI-1640, 35° C.; for Minimal inhibitory concentration(MIC), C. albicans A. 10231: RPMI-1640, 35° C., no growth observed
Protocol: as §1, §2, §3, §4, §5, §6

[12] = test system: Candida parapsitosis A. 7330; details: 4 to 48 hours; for Minimal inhibitory concentration (MIC): C. parapsitosis A. 7330, RPMI-1640, 35° C.; for Minimal inhibitory concentration(MIC), C. parapsitosis A. 7330: RPMI-1640, 35° C., no growth observed
Protocol: as §1, §2, §3, §4, §5, §6

Candida albicans C1-2 = details: 4 to 48 hours; for Minimal inhibitory concentration (MIC): C. albicans C1-2, RPMI-1640, 35° C.; for Minimal inhibitory concentration(MIC), C. albicans C1-2: RPMI-1640, 35° C., no growth observed
Protocol: as §1, §2, §3, §4, §5, §6

[13] = test system: Torulopsis glabrata B. 16205; details: 4 to 48 hours; for Minimal inhibitory concentration (MIC): T. glabrata B. 16205, RPMI-1640, 35° C.; for Minimal inhibitory concentration(MIC), T. glabrata B. 16205: RPMI-1640, 35° C., no growth observed
Protocol: as §1, §2, §3, §4, §5, §6

| SMILES | Minimal inhibitory concentration (MIC) [1] [µg/mL] | Minimal inhibitory concentration (MIC) [2] [µg/mL] | Minimal inhibitory concentration (MIC) (Candida krusei K. 11655) [µg/mL] | Minimal inhibitory concentration (MIC) [3] | Minimal inhibitory concentration (MIC) [4] [µg/mL] | Minimal inhibitory concentration (MIC) [5] [µg/mL] | Minimal inhibitory concentration (MIC) [6] | Minimal inhibitory concentration (MIC) [7] [µg/mL] | Minimal inhibitory concentration (MIC) [8] [µg/mL] | Minimal inhibitory concentration (MIC) [9] [µg/mL] | Minimal inhibitory concentration (MIC) [10] [µg/mL] | Minimal inhibitory concentration (MIC) [11] [µg/mL] | Minimal inhibitory concentration (MIC) [12] [µg/mL] | Minimal inhibitory concentration (MIC) (Candida albicans C1-2) [µg/mL] | Minimal inhibitory concentration (MIC) [13] [µg/mL] | Minimal inhibitory concentration(MIC), C. tropicalis A. 13803 [1] [µg/mL] | Minimal inhibitory concentration(MIC), T. mentagrophytes A. 9129 [2] [µg/mL] | Minimal inhibitory concentration(MIC), C. krusei K. 11655 (Candida krusei K. 11655) [µg/mL] | Minimal inhibitory concentration(MIC), Cry. neoformans IFM. 40092 [3] | Minimal inhibitory concentration(MIC), Cry. neoformans A. 34144 [4] [µg/mL] | also measured |
| --- | --- | --- | --- | --- | --- | --- | --- | --- | --- | --- | --- | --- | --- | --- | --- | --- | --- | --- | --- | --- | --- |
| FC(OCC1COC(Cn2ccnc2)(c2ccc(Cl)cc2Cl)O1)=C(c1cc(Cl)cc(Cl)c1)C(F)(F)F (mixture of isomers) [Ex. 34] | 12.5 | 1.56 | 25.0 | 0.39 µg/mL | 1.56 | 6.25 | 0.78 µg/mL | 0.39 | 1.56 | 12.5 | 3.13 | 6.25 | 12.5 | 6.25 | 6.25 | – | – | – | – | – | – |
| Cc1ccc(C(=C(F)Oc2ccc(OCC3COC(Cn4cncn4)(c4ccc(Cl)cc4Cl)O3)cc2)C(F)(F)F)cc1 (mixture of isomers) [Ex. 120] | – | – | – | – | – | – | – | – | – | – | – | – | – | – | – | 100 | 6.25 | >100 | 0.39 µg/mL | 1.56 | Minimal inhibitory concentration(MIC), A. niger A. 16404 [5]: >100 µg/mL; Minimal inhibitory concentration(MIC), T. mentagrophytes B. 32663 [6]: 3.13 µg/mL; Minimal inhibitory concentration(MIC), C. albicans IFO. 1385 [7]: 1.56 µg/mL; Minimal inhibitory concentration(MIC), Cry. neoformans B. 42419 [8]: 3.13 µg/mL; Minimal inhibitory concentration(MIC), C. pseudotropicalis K. 11658 [9]: >100 µg/mL; Minimal inhibitory concentration(MIC), A furnigatus B. 19119 [10]: >100 µg/mL; Minimal inhibitory concentration(MIC), C. albicans A. 10231 [11]: 25.0 µg/mL; Minimal inhibitory concentration(MIC), C. parapsitosis A. 7330 [12]: >100 µg/mL; Minimal inhibitory concentration(MIC), C. albicans C1-2 (Candida albicans C1-2): 25.0 µg/mL; Minimal inhibitory concentration(MIC), T. glabrata B. 16205 [13]: 50.0 µg/mL |
| FC(=C(c1ccccc1)C(F)(F)F)N1CCN(c2ccc(OCC3COC(Cn4ccnc4)(c4ccc(F)cc4F)O3)cc2)CC1 (mixture of isomers) [Ex. 138] | – | – | – | – | – | – | – | – | – | – | – | – | – | – | – | >100 | 3.13 | 1.56 | ≦0.10 μg/ml | 0.78 | Minimal inhibitory concentration(MIC), A. niger A. 16404 [5]: 100 µg/mL; Minimal inhibitory concentration(MIC), T. mentagrophytes B. 32663 [6]: ≦0.10 μg/ml; Minimal inhibitory concentration(MIC), C. albicans IFO. 1385 [7]: 0.78 µg/mL; Minimal inhibitory concentration(MIC), Cry. neoformans B. 42419 [8]: 0.78 µg/mL; Minimal inhibitory concentration(MIC), C. pseudotropicalis K. 11658 [9]: 1.56 µg/mL; Minimal inhibitory concentration(MIC), A furnigatus B. 19119 [10]: 12.5 µg/mL; Minimal inhibitory concentration(MIC), C. albicans A. 10231 [11]: >100 µg/mL; Minimal inhibitory concentration(MIC), C. parapsitosis A. 7330 [12]: 0.78 µg/mL; Minimal inhibitory concentration(MIC), C. albicans C1-2 (Candida albicans C1-2): >100 µg/mL; Minimal inhibitory concentration(MIC), T. glabrata B. 16205 [13]: 100 µg/mL |
| COc1ccc(C(=C(F)OCC2COC(Cn3ccnc3)(c3ccc(F)cc3F)O2)C(F)(F)F)cc1 (mixture of isomers) [Ex. 61] | 100 | 6.25 | >100 | 0.20 µg/mL | 1.56 | 100 | 3.13 µg/mL | 0.78 | 1.56 | 100 | 12.5 | 12.5 | >100 | 12.5 | 6.25 | – | – | – | – | – | – |
| FC(Oc1ccc(OCC2COC(Cn3ccnc3)(c3ccc(F)cc3F)O2)cc1)=C(c1cccc(Cl)c1)C(F)(F)F (mixture of isomers) [Ex. 114] | – | – | – | – | – | – | – | – | – | – | – | – | – | – | – | >100 | 6.25 | >100 | 0.39 µg/mL | 1.56 | Minimal inhibitory concentration(MIC), A. niger A. 16404 [5]: >100 µg/mL; Minimal inhibitory concentration(MIC), T. mentagrophytes B. 32663 [6]: 3.13 µg/mL; Minimal inhibitory concentration(MIC), C. albicans IFO. 1385 [7]: 1.56 µg/mL; Minimal inhibitory concentration(MIC), Cry. neoformans B. 42419 [8]: 1.56 µg/mL; Minimal inhibitory concentration(MIC), C. pseudotropicalis K. 11658 [9]: >100 µg/mL; Minimal inhibitory concentration(MIC), A furnigatus B. 19119 [10]: >100 µg/mL; Minimal inhibitory concentration(MIC), C. albicans A. 10231 [11]: 50.0 µg/mL; Minimal inhibitory concentration(MIC), C. parapsitosis A. 7330 [12]: >100 µg/mL; Minimal inhibitory concentration(MIC), C. albicans C1-2 (Candida albicans C1-2): 25.0 µg/mL; Minimal inhibitory concentration(MIC), T. glabrata B. 16205 [13]: 50.0 µg/mL |
| FC(=Cc1ccc(Cl)cc1)OCC1COC(Cn2ccnc2)(c2ccc(F)cc2F)O1 (mixture of isomers) [Ex. 47] | 25.0 | 0.39 | 12.5 | ≦0.10 μg/ml | 0.78 | 6.25 | ≦0.10 μg/ml | 0.20 | 0.78 | 6.25 | 1.56 | 12.5 | 6.25 | 12.5 | 6.25 | – | – | – | – | – | – |
